{
  "source": "patent US5446066A",
  "about": "“Substituted (arylalkoxybenzyl)aminopropanamide derivatives and process for their preparation” (Farmitalia Carlo Erba S.r.l., priority 1993, dated 1995)",
  "key": {"[1]": {"experiment": "antagonism of maximal electroshock seizures (MES test)", "format": "in vivo", "settings": "read-out: MES-ED50 (effective dose in 50% of treated animals)", "description": "The compounds of the invention are active on the central nervous system (CNS) and can be used in therapy, for example as antiepileptics, in the treatment of Parkinson's disease and as neuroprotective agents, e.g. in degenerative processes associated with normal ageing or pathological situations, such as brain ischemia; they can also be used as antidepressants, hypnotics and antispastic agents. The activity on the CNS of the compounds of the invention was evaluated on the basis of pharmacological methods, such as, for example, the antagonism of convulsions and lethality induced by intravenous injection of bicuculline in mice (Antiepileptic Drugs, D. M. Woodbury et al. eds., 2nd edition, Raven Press, New York, 1982), or the antagonism of maximal electroshock seizures (MES) (Woodbury, L. A. and Davenport V. D., Arch. Int. Pharmacodyn. Ther. 92; 97-104, 1952).\n(§1) For instance, the following Table 1 summarizes the activity and neurotoxicity data obtained in the MES test and in the rotorod test, respectively, for a representative group of compounds according to the present invention, in comparison with the prior art compound 2-[4-(3-phenylpropyl)oxybenzyl]aminopropanamide methanesulfonate (internal code FCE 27023) which is known from WO-90/14334\nED50 means effective dose in 50% of treated animals"}, "in vivo": {"experiment": "in vivo", "description": "The neurotoxicity of the compound and of the reference anticonvulsants was assessed with the rotorod test (Dunan and Miye., J. Am. Pharm. Ass. Sci. Ed., 1957, 46, 208; Kinnard et al., J. Pharmacol. Exp. Ther. 1957, 121, 354; Horowitz. Nature, 1963, 200, 369).\nas §1\nTD50 means toxic dose in 50% of treated animals\nTI means therapeutic index (TD50 /ED50)"}},
  "data": [
    {"smiles": "CC(NCc1ccc(OCCCCCc2ccccc2)cc1)C(N)=O", "note": "(stereo not drawn) [compound 28244]", "values": [
      {"measurement": "ED50", "setting": "[1]", "result": 12.5, "unit": "mg/kg"},
      {"measurement": "TD50", "setting": "in vivo", "result": 1010, "unit": "mg/kg"},
      {"measurement": "selectivity ratio", "setting": "in vivo", "result": 81}
    ]},
    {"smiles": "NC(=O)C(CO)NCc1ccc(OCCCc2ccccc2)cc1", "note": "(stereo not drawn) [compound 28245]", "values": [
      {"measurement": "ED50", "setting": "[1]", "result": 8.6, "unit": "mg/kg"},
      {"measurement": "TD50", "setting": "in vivo", "result": 863, "unit": "mg/kg"},
      {"measurement": "selectivity ratio", "setting": "in vivo", "result": 100}
    ]},
    {"smiles": "CC(NCc1ccc(OCCCc2ccccc2)cc1)C(N)=O", "note": "(stereo not drawn) [compound 27023]", "values": [
      {"measurement": "ED50", "setting": "[1]", "result": 8.8, "unit": "mg/kg"},
      {"measurement": "TD50", "setting": "in vivo", "result": 584, "unit": "mg/kg"},
      {"measurement": "selectivity ratio", "setting": "in vivo", "result": 66}
    ]},
    {"smiles": "CC(NCc1ccc(OCCCCc2ccccc2)cc1)C(N)=O", "note": "(stereo not drawn) [compound 28243]", "values": [
      {"measurement": "ED50", "setting": "[1]", "result": 12.4, "unit": "mg/kg"},
      {"measurement": "TD50", "setting": "in vivo", "result": 1000, "unit": "mg/kg"},
      {"measurement": "selectivity ratio", "setting": "in vivo", "result": 82}
    ]}
  ]
}
